Assay results: patent publication US10011591B2, “Crystalline form of afatinib dimaleate” (Sun Pharmaceutical Industries Limited, priority 2014, dated 2018)

Test: Storage stability towards polymorphic conversion, triple layer package
Type: physicochemical
Details: 25° C. ±2° C. and 60% ±5% relative humidity for two months under triple layer package
Excerpt: The term “triple layer package,” as used herein, refers to the afatinib dimaleate being packed in a low density polyethylene (LDPE) pouch, then inserted and heat sealed under vacuum in a bag with a mixture of polyester/LDPE with silica sachet as a desiccant, and then further inserted and heat sealed under vacuum into an outer bag with a mixture of polyester film/aluminum foil/polyester LDPE.

Q: For `CN(C)C/C=C/C(=O)Nc1cc2c(Nc3ccc(F)c(Cl)c3)ncnc2cc1O[C@H]1CCOC1.O=C(O)/C=C\C(=O)O.O=C(O)/C=C\C(=O)O` [crystalline Form I of afatinib dimaleate, 2-butenamide, N-[4-[(3-chloro-4-fluorophenyl)amino]-7-[[(3S)-tetrahydro-3-furanyl]oxy]-6-quinazolinyl]-4-(dimethylamino)-,(2E)-, (2Z)-2-butenedioate (1:2)], which “polymorphic form stability on storage (conversion to any other form)” value is on record?
A: not converted to any other form of afatinib dimaleate
